According to publication PMC8597046, “Use of Mixture Dosing and Nonlinear Mixed Effect Modeling of Eight Environmental Contaminants in Rabbits to Improve Extrapolation Value of Toxicokinetic Data” (Environmental Health Perspectives, 2021):

Tests used:
[1] = Nonlinear mixed effect (NLME) compartmental modeling of merged IV and oral serum concentrations
Description: A nonlinear mixed effect (NLME) modeling approach was used to analyze simultaneously all data obtained from the different rabbits after both IV and oral administrations and to provide robust estimates of the typical TK parameters.
The primary parameters of the model, namely the volume of distribution of the central compartment (V1), the first-order rate constants ( K10 , K12 , K21 , and Kabs plus K13 , K31 for PFOA) and the bioavailability (F) and their associated precisions [standard error (SE)] were estimated by minimizing an objective function value (OFV) expressed as minus twice the log of the likelihood estimation ( −2LL ). […] Marginal likelihood was approximated by using the Laplacian engine by default and, when this engine was unable to determine the SE of the estimate, the Quasi-Random Parametric Expectation Maximization (QRPEM) was selected.
Between subject variability (BSV) of the parameters was measured using the exponential model θparameter_i=θtv_parameter×exp (ηi), where θparameter_i is the parameter estimated for the ith individual, θtv_parameter is the typical population value of the parameter, and ηi is the deviation associated with the ith individual from the corresponding value of the parameter at the population level.
The distribution of ηi was assumed to be normal with a mean of 0 and a variance ω² . BSV was reported as a coefficient of variation (CV) in the original scale CV(%)=100× exp (ω^2)−1 .
The residual variance was modeled using a combined additive and proportional error model Cobsij=Cpredij(1 + ε1ij) + ε2ij, where Cobsij and Cpredij are respectively the jth observed and predicted concentrations for the ith individual, and ε1ij and ε2ij are the multiplicative and additive residual errors.
Secondary parameters were calculated from the population primary parameters.
The clearance values (CL) were estimated using Equation 5: (5) CL=K10×V1, where V1 is the volume of the central compartment and K10 is the elimination rate constant from the central compartment.
The volume of the peripheral compartment (V2) was estimated with Equation 6: (6) V2=V1×(K12/K21), where K12 and K21 are the distribution rate constants between the central and the peripheral compartments.
The clearance of distribution (Q) was estimated using Equation 7: (7) Q=K12×V1, with […] and K12 as defined above.
The volume of distribution associated with the terminal phase was estimated with Equation 10: (10) VZ=CL/λZ, with λZ as defined above.
The AUC was computed as a secondary parameter using Equation 11: (11) AUC=Dose/CL.
The terminal half-life was estimated with Equation 1, as previously described.

[2] = Estimation of loading and daily maintenance doses and NLME model simulations; design: species or system female rabbits; details: oral; for Computed maintenance dose: daily; for Computed maintenance dose / Computed loading dose: scaled to the targeted CSS of Table 6
Description: The ultimate goal of this TK investigation was to compute a dosage regimen that allowed targeted steady-state serum concentrations to be attained rapidly for a planned TK/TD trial on the reprotoxic effect of a mixture of environmental contaminants in female rabbits. […] With that in mind, the loading and the daily maintenance doses of each compound were evaluated using Equations 12 and 13, respectively.
This risk was also the reason why the NLME model was employed to simulate the time development of the amounts of compounds in the central and peripheral compartments following administration of the daily maintenance dose of each compound over the same duration.
The loading and maintenance doses computed to ensure a nominal CSS of 1 ng/mL were scaled to determine the doses to be administrated by oral route to female rabbits to maintain the targeted CSS .

[3] = Chronic exposure: daily oral mixture for 17 wk, steady-state serum concentrations; details: serum, mean±SD, n=16, after 17 weeks of oral mixture; MEHP after DEHP dosing
Description: The objective of this preliminary experiment was to check the ability of our approach to determine the loading and maintenance doses of the eight compounds to be administered simultaneously by oral route to reproduce in female rabbits targeted serum concentrations. The experiment was carried out on thirty-two 2-wk old female New Zealand white rabbits (INRA 1777 line) randomly allocated to a treatment and control groups of 16 rabbits weighing 309±45g and 298±62g , respectively. The treated rabbits were orally administrated a mixture of the eight compounds at a dosage corresponding to the sum of the loading and daily maintenance doses followed by daily administrations of the maintenance dose for 17 wk (see the “Estimation of the doses” section). The control group was orally administrated the vehicle for the same duration.
The volume of the maintenance dosing solution ( 1mL/kg ) was weekly adjusted to the mean BW estimated from the known pattern of growth of the INRA 1777 rabbit line. Oral dosing and antemortem blood sampling were performed as previously described.
Blood samples were left to clot for about 20–30 min at ambient temperature and centrifuged for 20 min at 3,000×g at 25°C. The separated serum was stored in glass tubes at −20°C until assayed.

[4] = rodents; ref Chang et al. 2012; cited from earlier work
[5] = TK assay, intravenous mixture dosing: serum concentrations and noncompartmental analysis (sparse data); details: IV mixture dosing, NCA, n=12
Description: (§1) The experiment was carried out on thirty 10-wk old female New Zealand white rabbits (INRA 1777 line) weighing 2.37±0.14kg . […] Blood samples were taken at the designated time points post IV and oral administration: 15 min, 30 min, 1 h, 2 h, 4 h, 8 h, 12 h, 24 h, 3 d, 7 d, and 28 d from groups of 3 or 6 rabbits at each sampling time. Each rabbit was sampled 3 times and 3 rabbits were sampled at each sampling time, except at 30 min post administration, when 6 samples were collected to provide a sufficient blood volume for assaying the compounds. The doses and assay time points were selected to allow the calculation of TK parameters (Table 1) based on preliminary TK data. Residual concentrations of the compounds, and their possible evolution over time, were determined by sampling six entirely untreated rabbits during the TK study on the day of drug administrations, then 14 d and 28 d later.
(§2) The volume administered was adjusted to the animal’s body weight (BW) recorded the day before.
(§3) Intravenous administrations were performed via an indwelling catheter (22G Terumo, 0.9×25mm ) just after its insertion into an ear vein. […] For oral administrations, the mixture of all compounds ( 4mL/kg ) was deposited directly in the mouth of rabbits using a catheter (22G BD Insyte 22G, 0.9×25mm ). Prior to the study, the rabbits had been trained to gradually swallow water and then corn oil.
(§4) Blood samples were collected from the auricular artery using a 20 G needle ( 0.9×25mm ) and a dry tube. The first two blood samples were 8–10mL in volume, whereas a large volume (about 20mL ) was obtained antemortem immediately after electrical stunning (95LX rabbit stunner; Burdis), followed by exsanguination.
(§5) Serum concentration-time profiles of the different compounds were first analyzed using a noncompartmental approach (NCA) involving a sparse data option. Sparse data methodology consists of calculating TK parameters based on the mean profile of all the subjects in the dataset and is appropriate when a rich data series cannot be obtained, as in the present experiment ([FDA 1999]). The area under the concentration time curve ( AUC0−tlast ) and the area under the first moment curve ( AUMC0−tlast ) from dosing time ( t=0 ) to the time of the last measurable concentration were calculated using the linear trapezoidal rule after IV and oral dosing. The area under the serum concentration time curve from dosing time to infinity ( AUC0−inf ) was obtained by adding to AUC0−tlast the area extrapolated from the time of the last measurable concentration to infinity by dividing the last quantifiable serum concentration by the slope of the terminal phase ( λZ ), as estimated by linear regression using the best fit option of Phoenix®.
(§6) The clearance (CL) and apparent clearance (CL_F) were respectively estimated after IV and oral administrations by dividing the administered dose by the AUC0−inf calculated for each analyte.
(§7) The terminal half-life (HL) was estimated with Equation 1: (1) HL=0.69315/λZ where λz is the slope of the terminal phase.
The mean residence time (MRT) was estimated using Equation 3: (3) MRT=AUMCiv0−tlast /AUCiv0−tlast , where AUCMiv0−tlast and AUCiv0−tlast are the values of AUMC0−tlast and AUC0−tlast obtained after IV dosing.
The steady-state volume of distribution ( VSS ) was estimated using Equation 4: (4) VSS=CL×MRT, with CL and MRT as defined above.

[6] = TK assay, oral mixture dosing: serum concentrations and noncompartmental analysis (sparse data); details: oral mixture dosing, NCA, n=12
Description: as §1, §2, §3, §4, §5, §6, §7
The oral bioavailability (F) was estimated using Equation 2: (2) F=AUCvo0−tlast×Doseiv/AUCiv0−tlast×Dosevo, where AUCiv0−tlast and AUCvo0-tlast are the values of AUC0−tlast obtained after IV and oral dosing, respectively, and Doseiv and Dosevo are the IV and oral doses.

Compound | Oral bioavailability (F) ([1]; NLME model) | Clearance ([1]; population secondary parameter, mean) | Computed maintenance dose [2] | Computed loading dose [2] | Observed CSS [3] | Intestinal absorption [4] | Daily maintenance dose ([2]; to maintain serum concentration of 1 ng/mL, daily CL×Css/F, DEHP dose for MEHP in serum) | Loading dose ([2]; to rapidly attain serum concentration of 1 ng/mL, Vss×Css/F, DEHP dose for MEHP in serum) | MRT [5] | AUC0−inf ([5]; serum) | Cmax ([5]; serum, doses in Table 2 r3, BPSG after BPS dosing) | half-life ([5]; terminal) | MRT ([6]; MEHP after oral DEHP) | Tmax ([6]; MEHP after oral DEHP) | AUC0−inf ([6]; serum, MEHP after oral DEHP) | Cmax ([6]; serum, doses in Table 3 r3, MEHP measured after oral DEHP, BPSG after BPS) | half-life ([6]; terminal, MEHP after oral DEHP)
O=S(=O)(O)C(F)(F)C(F)(F)C(F)(F)C(F)(F)C(F)(F)C(F)(F)C(F)(F)C(F)(F)F [PFOS, perfluorooctane sulfonate] | 100% | lower than 0.01 L/kg/h | 0.0013 mg/kg | 0.06 mg/kg | 154 ± 25 ng/mL | 117% | – | – | – | – | – | – | – | – | – | – | –
CCCCC(CC)COC(=O)c1ccccc1C(=O)OCC(CC)CCCC (stereo not shown) [DEHP, di(2-ethylhexyl)phthalate] | – | – | 0.78 mg/kg | 0.264 mg/kg | – | – | 0.013 mg/kg | 0.0044 mg/kg | – | – | – | – | – | – | – | – | –
O=C(O)[C@H]1O[C@@H](Oc2ccc(S(=O)(=O)c3ccc(O)cc3)cc2)[C@H](O)[C@@H](O)[C@@H]1O [BPSG, bisphenol S glucuronide] | – | – | – | – | – | – | – | – | 3.16 h | 5.18 µM·h | 5.78 µM | 3.80 h | 7.66 h | 0.27 h | 15.8 µM·h | 6.91 µM | 4.23 h
